Columns and labels:
[1] = system: Trichomonas vaginalis; test: Antiprotozoal activity against Trichomonas vaginalis CMP; type: functional, organism-based
[2] = system: Trypanosoma brucei brucei; test: Antiprotozoal activity against Trypanosoma brucei brucei GVR35; type: functional
[3] = system: Leishmania donovani; test: Antiprotozoal activity against Leishmania donovani MHOM/ET/L82/LV9; type: functional, organism-based

IC50 [1] [µM]	IC50 [3] [µM]	Structure (SMILES)	MAC [2] [µM]
> 300	> 300	CCCCCCC(=O)Nc1ccc2nccnc2c1Br	>300
> 300	> 300	O=C(Nc1ccc2nccnc2c1Br)c1ccc(C(=O)c2ccccc2)cc1	>300
> 300	34	c1ccc2c(CNc3ccc4nccnc4c3)ccnc2c1	>300
> 300	> 300	CCc1ccc(OCc2ccccc2C(=O)Nc2ccc3nc(-c4ccccc4)c(-c4ccccc4)nc3c2)cc1	>300
> 300	> 300	CCCCCCCCCCCCC(=O)Nc1ccc2nccnc2c1Br	>300
> 300	> 300	CCCCCCCCCCCCCCCC(=O)Nc1ccc2nccnc2c1Br	>300
126	18.5	CCc1ccc(OCc2ccccc2C(=O)Nc2ccc3nccnc3c2)cc1	150
> 300	8.2	CCc1ccc(OCc2ccccc2C(=O)Nc2ccc3nc(C)c(C)nc3c2)cc1	200
> 300	> 300	CCc1ccc(OCc2ccccc2NC(=O)c2ccc3nc(-c4ccccc4)c(-c4ccccc4)nc3c2)cc1	>300
> 300	79.5	c1cnc2cc(NCc3ccc4c(c3)OCO4)ccc2n1	>300
> 300	> 300	CCn1c2ccccc2c2cc(NC(=O)c3ccc4nc(-c5ccccc5)c(-c5ccccc5)nc4c3)ccc21	>300
> 300	> 300	COc1cc2oc3ccccc3c2cc1NC(=O)c1ccc2nc(-c3ccccc3)c(-c3ccccc3)nc2c1	>300
> 300	18.4	CCc1ccc(OCc2ccccc2NC(=O)c2ccc3nccnc3c2)cc1	200
> 300	117	CCCCCCC(=O)Nc1ccc2nccnc2c1	>300
> 300	> 300	COc1cc2oc3ccccc3c2cc1NC(=O)c1ccc2nccnc2c1	>300
> 300	> 300	CCn1c2ccccc2c2cc(N(C(=O)c3ccc4nc(-c5ccccc5)c(-c5ccccc5)nc4c3)C(=O)c3ccc4nc(-c5ccccc5)c(-c5ccccc5)nc4c3)ccc21	>300

IC50 [1] [µM]	IC50 [3] [µM]	Structure (SMILES)	MAC [2] [µM]
> 300	> 300	CCc1ccc(OCc2ccccc2NC(=O)c2ccc3nc(C)cnc3c2)cc1	>300
> 300	> 300	O=C(Nc1cccc2c1oc1ccccc12)c1ccc2nc(-c3ccccc3)c(-c3ccccc3)nc2c1	>300
> 300	> 300	CCc1ccc(OCc2ccccc2NC(=O)c2ccc3nc(C)c(C)nc3c2)cc1	>300
> 300	12.5	CCc1ccc(OCc2ccccc2C(=O)Nc2ccc3nc(C)cnc3c2)cc1	200
191	> 300	O=[N+]([O-])c1ccc(CNc2ccc3nccnc3c2)cc1	>300
264	92.4	c1ccc(CNc2ccc3nccnc3c2)cc1	>300
> 300	> 300	CCn1c2ccccc2c2cc(NC(=O)c3ccc4nccnc4c3)ccc21	200
> 300	> 300	O=C(Nc1ccc2nccnc2c1Br)c1ccc2ccccc2n1	>300
> 300	> 300	Cc1nc2ccc(NC(=O)C34CC5CC(CC(C5)C3)C4)cc2nc1C	>300
> 300	> 300	COc1cc2oc3ccccc3c2cc1N(C(=O)c1ccc2nc(-c3ccccc3)c(-c3ccccc3)nc2c1)C(=O)c1ccc2nc(-c3ccccc3)c(-c3ccccc3)nc2c1	>300
> 300	> 300	O=C(Nc1ccc2nccnc2c1)c1ccc(Br)o1	>300
> 300	> 300	CCCCCCCCCCCCCCCC(=O)Nc1ccc2nc(C)c(C)nc2c1	>300
243	46.3	CCCCCNc1ccc2nccnc2c1	>300
		Nc1nc(N)nc(Nc2ccc([As]3SCC(CO)S3)cc2)n1 (stereo not given) [MELARSOPROL]	0.1
5.8		Cc1ncc([N+](=O)[O-])n1CCO [METRONIDAZOLE]	
	7.3	CCCCCCCCCCCCCCCCOP(=O)([O-])OCC[N+](C)(C)C [MILTEFOSINE]	

Source: ChEMBL document CHEMBL1149446, “Synthesis and antiprotozoal activity of some new synthetic substituted quinoxalines” (Bioorg Med Chem Lett, 2006)
